Test results from ChEMBL document CHEMBL5625247, “Tetrahydro-β-carboline derivatives as potent histone deacetylase 6 inhibitors with broad-spectrum antiproliferative activity” (Eur J Med Chem, 2023).

Assays:
[1] = tested on: HCT-116; assay: Antiproliferative activity against human HCT-116 cells assessed as cell growth inhibition incubated for 72 hrs by alamar blue dye based assay; type: functional
[2] = tested on: U-251; assay: Antiproliferative activity against human U-251 cells assessed as cell growth inhibition incubated for 72 hrs by alamar blue dye based assay; type: functional
[3] = tested on: HCC 2998; assay: Antiproliferative activity against human HCC 2998 cells assessed as cell growth inhibition incubated for 72 hrs by alamar blue dye based assay; type: functional
[4] = tested on: MDA-MB-435; assay: Antiproliferative activity against human MDA-MB-435 cells assessed as cell growth inhibition incubated for 72 hrs by alamar blue dye based assay; type: functional
[5] = tested on: NCI/ADR-RES; assay: Antiproliferative activity against human NCI-ADR-RES cells assessed as cell growth inhibition incubated for 72 hrs by alamar blue dye based assay; type: functional
[6] = tested on: 786-0; assay: Antiproliferative activity against human 786-0 cells assessed as cell growth inhibition incubated for 72 hrs by alamar blue dye based assay; type: functional
[7] = tested on: NCI-H23; assay: Antiproliferative activity against human NCI-H23 cells assessed as cell growth inhibition incubated for 72 hrs by alamar blue dye based assay; type: functional
[8] = tested on: NCI-H226; assay: Antiproliferative activity against human NCI-H226 cells assessed as cell growth inhibition incubated for 72 hrs by alamar blue dye based assay; type: functional
[9] = tested on: SK-MEL-28; assay: Antiproliferative activity against human SK-MEL-28 cells assessed as cell growth inhibition incubated for 72 hrs by alamar blue dye based assay; type: functional
[10] = tested on: IGROV-1; assay: Antiproliferative activity against human IGROV-1 cells assessed as cell growth inhibition incubated for 72 hrs by alamar blue dye based assay; type: functional
[11] = tested on: MOLT-4; assay: Antiproliferative activity against human MOLT-4 cells assessed as cell growth inhibition incubated for 72 hrs by alamar blue dye based assay; type: functional
[12] = tested on: RXF 393; assay: Antiproliferative activity against human RXF 393 cells assessed as cell growth inhibition incubated for 72 hrs by alamar blue dye based assay; type: functional
[13] = tested on: CAKI-1; assay: Antiproliferative activity against human CAKI-1 cells assessed as cell growth inhibition incubated for 72 hrs by alamar blue dye based assay; type: functional
[14] = tested on: DU-145; assay: Antiproliferative activity against human DU-145 cells assessed as cell growth inhibition incubated for 72 hrs by alamar blue dye based assay; type: functional
[15] = target: Histone deacetylase 1 (Homo sapiens, UniProt Q13547); assay: Inhibition of HDAC1 (unknown origin) expressed in baculovirus infected in Sf9 cells using RHKKAc as substrate preincubated for 5 to 10 mins followed by substrate addition measured after 2 hrs by fluorescence based assay
Sequence of Histone deacetylase 1 (Q13547 whole entry): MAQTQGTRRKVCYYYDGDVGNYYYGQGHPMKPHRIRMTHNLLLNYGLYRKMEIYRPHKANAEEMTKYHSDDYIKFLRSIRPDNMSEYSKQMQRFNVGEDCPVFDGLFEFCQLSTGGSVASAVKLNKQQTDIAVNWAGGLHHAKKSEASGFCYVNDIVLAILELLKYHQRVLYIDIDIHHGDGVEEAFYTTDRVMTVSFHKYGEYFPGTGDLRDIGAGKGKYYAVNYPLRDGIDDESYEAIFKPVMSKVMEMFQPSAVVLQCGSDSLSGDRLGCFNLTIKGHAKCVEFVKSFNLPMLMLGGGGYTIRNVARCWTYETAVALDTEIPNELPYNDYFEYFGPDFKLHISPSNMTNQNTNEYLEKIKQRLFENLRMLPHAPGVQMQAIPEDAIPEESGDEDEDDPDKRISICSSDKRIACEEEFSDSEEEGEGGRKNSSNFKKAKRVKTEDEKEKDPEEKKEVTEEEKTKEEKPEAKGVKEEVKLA

[16] = tested on: MDA-MB-468; assay: Antiproliferative activity against human MDA-MB-468 cells assessed as cell growth inhibition incubated for 72 hrs by alamar blue dye based assay; type: functional
[17] = tested on: SN12C; assay: Antiproliferative activity against human SN12C cells assessed as cell growth inhibition incubated for 72 hrs by alamar blue dye based assay; type: functional
[18] = tested on: NCI-H522; assay: Antiproliferative activity against human NCI-H522 cells assessed as cell growth inhibition incubated for 72 hrs by alamar blue dye based assay; type: functional
[19] = tested on: SF-295; assay: Antiproliferative activity against human SF-295 cells assessed as cell growth inhibition incubated for 72 hrs by alamar blue dye based assay; type: functional
[20] = tested on: HOP-62; assay: Antiproliferative activity against human HOP-62 cells assessed as cell growth inhibition incubated for 72 hrs by alamar blue dye based assay; type: functional
[21] = tested on: SW-620; assay: Antiproliferative activity against human SW620 cells assessed as cell growth inhibition incubated for 72 hrs by alamar blue dye based assay; type: functional
[22] = tested on: PC-3; assay: Antiproliferative activity against human PC-3 cells assessed as cell growth inhibition incubated for 72 hrs by alamar blue dye based assay; type: functional
[23] = tested on: Hs-578T; assay: Antiproliferative activity against human Hs-578T cells assessed as cell growth inhibition incubated for 72 hrs by alamar blue dye based assay; type: functional
[24] = tested on: SF-539; assay: Antiproliferative activity against human SF-539 cells assessed as cell growth inhibition incubated for 72 hrs by alamar blue dye based assay; type: functional
[25] = tested on: OVCAR-5; assay: Antiproliferative activity against human OVCAR-5 cells assessed as cell growth inhibition incubated for 72 hrs by alamar blue dye based assay; type: functional
[26] = tested on: OVCAR-3; assay: Antiproliferative activity against human OVCAR-3 cells assessed as cell growth inhibition incubated for 72 hrs by alamar blue dye based assay; type: functional
[27] = tested on: LOX IMVI; assay: Antiproliferative activity against human LOX IMVI cells assessed as cell growth inhibition incubated for 72 hrs by alamar blue dye based assay; type: functional
[28] = tested on: M14; assay: Antiproliferative activity against human M14 cells assessed as cell growth inhibition incubated for 72 hrs by alamar blue dye based assay; type: functional
[29] = tested on: Malme-3M; assay: Antiproliferative activity against human Malme-3M cells assessed as cell growth inhibition incubated for 72 hrs by alamar blue dye based assay; type: functional
[30] = tested on: COLO 205; assay: Antiproliferative activity against human COLO 205 cells assessed as cell growth inhibition incubated for 72 hrs by alamar blue dye based assay; type: functional
[31] = tested on: A549; assay: Antiproliferative activity against human A549 cells assessed as cell growth inhibition incubated for 72 hrs by alamar blue dye based assay; type: functional
[32] = tested on: SK-MEL-5; assay: Antiproliferative activity against human SK-MEL-5 cells assessed as cell growth inhibition incubated for 72 hrs by alamar blue dye based assay; type: functional
[33] = tested on: SNB-19; assay: Antiproliferative activity against human SNB-19 cells assessed as cell growth inhibition incubated for 72 hrs by alamar blue dye based assay; type: functional
[34] = tested on: HT-29; assay: Antiproliferative activity against human HT-29 cells assessed as cell growth inhibition incubated for 72 hrs by alamar blue dye based assay; type: functional
[35] = tested on: UO-31; assay: Antiproliferative activity against human UO-31 cells assessed as cell growth inhibition incubated for 72 hrs by alamar blue dye based assay; type: functional
[36] = tested on: BT-549; assay: Antiproliferative activity against human BT-549 cells assessed as cell growth inhibition incubated for 72 hrs by alamar blue dye based assay; type: functional
[37] = tested on: HOP-92; assay: Antiproliferative activity against human HOP-92 cells assessed as cell growth inhibition incubated for 72 hrs by alamar blue dye based assay; type: functional
[38] = tested on: T47D; assay: Antiproliferative activity against human T47D cells assessed as cell growth inhibition incubated for 72 hrs by alamar blue dye based assay; type: functional
[39] = tested on: EKVX; assay: Antiproliferative activity against human EKVX cells assessed as cell growth inhibition incubated for 72 hrs by alamar blue dye based assay; type: functional
[40] = tested on: CCRF-CEM; assay: Antiproliferative activity against human CCRF-CEM cells assessed as cell growth inhibition incubated for 72 hrs by alamar blue dye based assay; type: functional
[41] = tested on: UACC-62; assay: Antiproliferative activity against human UACC-62 cells assessed as cell growth inhibition incubated for 72 hrs by alamar blue dye based assay; type: functional
[42] = tested on: SK-MEL-2; assay: Antiproliferative activity against human SK-MEL-2 cells assessed as cell growth inhibition incubated for 72 hrs by alamar blue dye based assay; type: functional
[43] = tested on: MCF7; assay: Antiproliferative activity against human MCF7 cells assessed as cell growth inhibition incubated for 72 hrs by alamar blue dye based assay; type: functional
[44] = tested on: KM12; assay: Antiproliferative activity against human KM12 cells assessed as cell growth inhibition incubated for 72 hrs by alamar blue dye based assay; type: functional
[45] = tested on: HL-60(TB); assay: Antiproliferative activity against human HL-60(TB) cells assessed as cell growth inhibition incubated for 72 hrs by alamar blue dye based assay; type: functional
[46] = tested on: NCI-H460; assay: Antiproliferative activity against human NCI-H460 cells assessed as cell growth inhibition incubated for 72 hrs by alamar blue dye based assay; type: functional

Work on COc1ccc(CN2[C@@H](C(=O)NCc3ccc(C(=O)NO)cc3)Cc3c([nH]c4ccccc34)[C@@H]2C2CC2)cc1 yielded a GI50 [1] of 2080 nM, a GI50 [2] of 2660 nM and a GI50 [3] of 2600 nM. It also gave a GI50 [4] of 638 nM, a GI50 [5] of 4050 nM and a GI50 [6] of 3980 nM. For the same molecule, the GI50 [7] was 2750 nM, the GI50 [8] was 3410 nM and the GI50 [9] was 1980 nM. The GI50 [10] was 2600 nM, the GI50 [11] was 1850 nM and the GI50 [12] was 797 nM. It also gave a GI50 [13] of 2400 nM, a GI50 [14] of 4380 nM and an IC50 [15] of 171 nM. The GI50 [16] was 1000 nM, the GI50 [17] was 3860 nM and the GI50 [18] was 965 nM. It also gave a GI50 [19] of 2920 nM, a GI50 [20] of 3480 nM and a GI50 [21] of 2260 nM. The GI50 [22] was 3120 nM, the GI50 [23] was 1850 nM and the GI50 [24] was 2480 nM. The GI50 [25] was 1870 nM, the GI50 [26] was 3410 nM and the GI50 [27] was 2370 nM. For the same molecule, the GI50 [28] was 4070 nM, the GI50 [29] was 847 nM and the GI50 [30] was 3470 nM. It also gave a GI50 [31] of 3540 nM, a GI50 [32] of 2600 nM and a GI50 [33] of 2890 nM. The GI50 [34] was 4840 nM, the GI50 [35] was 3000 nM and the GI50 [36] was 4990 nM. The GI50 [37] was 2620 nM, the GI50 [38] was 3820 nM and the GI50 [39] was 3200 nM. It also gave a GI50 [40] of 996 nM, a GI50 [41] of 1550 nM and a GI50 [42] of 4110 nM. The GI50 [43] was 2330 nM, the GI50 [44] was 3510 nM and the GI50 [45] was 2730 nM. The GI50 [46] was 3140 nM.

In the case of O=C(NO)c1ccc(CNC(=O)[C@H]2Cc3c([nH]c4ccccc34)[C@H](c3ccc(Cl)cc3)N2)cc1, the GI50 [1] is reported as 609 nM, the GI50 [2] is reported as 1210 nM and the GI50 [3] is reported as 605 nM. It also gave a GI50 [4] of 959 nM, a GI50 [5] of 3350 nM and a GI50 [6] of 3710 nM. The GI50 [7] was 1330 nM, the GI50 [8] was 2270 nM and the GI50 [9] was 878 nM. For the same molecule, the GI50 [10] was 1200 nM, the GI50 [11] was 563 nM and the GI50 [12] was 455 nM. It also gave a GI50 [13] of 2330 nM, a GI50 [14] of 1080 nM and an IC50 [15] of 61.6 nM. It also gave a GI50 [16] of 380 nM, a GI50 [17] of 2410 nM and a GI50 [18] of 584 nM. It also gave a GI50 [19] of 1810 nM, a GI50 [20] of 1270 nM and a GI50 [21] of 687 nM. The GI50 [22] was 1760 nM, the GI50 [23] was 1010 nM and the GI50 [24] was 1140 nM. For the same molecule, the GI50 [25] was 456 nM, the GI50 [26] was 1230 nM and the GI50 [27] was 1090 nM. It also gave a GI50 [28] of 2200 nM, a GI50 [29] of 410 nM and a GI50 [30] of 719 nM. The GI50 [31] was 3970 nM, the GI50 [32] was 721 nM and the GI50 [33] was 2260 nM. It also gave a GI50 [34] of 838 nM, a GI50 [35] of 2640 nM and a GI50 [36] of 4930 nM. The GI50 [37] was 930 nM, the GI50 [38] was 600 nM and the GI50 [39] was 2650 nM. For the same molecule, the GI50 [40] was 617 nM, the GI50 [41] was 538 nM and the GI50 [42] was 2770 nM. For the same molecule, the GI50 [43] was 874 nM, the GI50 [44] was 2360 nM and the GI50 [45] was 706 nM. It also gave a GI50 [46] of 1020 nM.
